Patent publication US7119213B2, “Pharmacologically active isolated or purified dauer pheromone compound for controlling aging and stress and method for isolating and characterizing the same” (priority 2002, dated 2006)

System: C. elegans
Assay: Dauer inducing activity assay (dauer test on worms grown in S medium)
Format: in vivo
Procedure: To examine whether this ethanol extract (A) can induce dauer larva phase, dauer test is performed on the worms that had been grown in the S medium.
Briefly, the dried A was dissolved in double distilled water and extracted with the equal volume of ethyl acetate. This extraction procedure was repeated 5 times.
After confirming the dauer inducing activity of B, extracts obtained by the above-described process are loaded onto a silica-gel absorption column which has been equilibrated with hexane: ethyl acetate: methanol=7:7:1. An active form of dauer pheromone (C) that were adsorbed onto the column was eluted with methanol.
To further purify C, HPLC separation is carried out using amine column. Briefly, the fraction C is dissolved in methanol and diluted with double distilled water (MeOH: ddH2O=1:1). This solution containing C is loaded onto the amine column, which is equilibrated with isopropanol solution (isopropanol: water=1:1). A dauer pheromone fraction bound to the column (Fraction D) was eluted with a gradient solution of the same solvent.
Table 5 outlines the result of dauer inducing assay using the active fractions D from the amine column chromatography. Finally, a dauer pheromone (E) is completely isolated and purified refined by size exclusion column chromatography using methanol as an eluent solution.
The pure dauer pheromone characterized by the above described procedures is defined as the structural formula I, and its chemical formula is 6-(3,5-dihydroxy-6-methyl-tetrahydro-pyran-2-yloxy)-heptanoic acid or its sodium salt.

CC(CCCCC(=O)O)OC1OC(C)C(O)CC1O (stereo not drawn) [W251 column fraction (purified form), 6-(3,5-dihydroxy-6-methyl-tetrahydro-pyran-2-yloxy)-heptanoic acid]
Formation of dauer larva stage (%) (dauer test on C. elegans): 100%
Population in dauer larva stage (number of worms in dauer larva stage in the dauer test): 62
Induction of dauer phase (in words) (pure pheromone added onto the media): markedly induce the worm into dauer phase
